Laboratory results: patent US20250324966A1, “ADDITIVE FOR PRESERVING CELLS, TISSUE AND/OR FOOD” (Proteimax Bio Technology Israel LTD, priority 2021, published 2025)

Experiments:
roses = test: Preservation of post-harvest flowers (roses), stems submerged in additive; parameters: species or system Rosa; details: single dose 100 μM in water, room temperature (28° C.), 0, 3 and 6 days, vs H2O, FIG. 6
Description: (§1) In this context, as an experimental model to evaluate the preservation of flowers or inflorescences, two different types of flowers and their degradation/preservation profile were evaluated through incubation with water or with a solution of the preservation additive of the invention, keeping the flowers in room temperature for a few days.
(§2) The chosen flowers were the rose (Rose-red) and the Gerbera (Gerbera). Species of the genus Rosa are among the most ornamental flowers cultivated in the world. Species of the genus Gerbera are used as an experimental organism in studies of flowering and flower meristematic development, and because they contain natural coumarin derivatives, they are flowers of phytochemical interest and biological control.
(§3) In this embodiment, the peptide of SEQ ID NO: 15, which comprises the peptide of SEQ ID NO: 9 and the peptide of SEQ ID NO: 2, was used.
(§4) Four flowers were used in each container, the stems being kept submerged with at least 5 cm of the respective liquid during the test period. Aluminum foil was used around the container where the stems were submerged, to protect from the incidence of light. Photographic results of flowers kept in each condition (control and test) at 0, 3 and 6 days are shown. […]

Gerberas = test: Preservation of post-harvest flowers (Gerberas), stems submerged in additive; parameters: species or system Gerbera; details: single dose 100 μM in water, room temperature (28° C.), 0, 3 and 6 days, vs H2O, FIG. 6
Description: as §1, §2, §3, §4

fresh strawberries [1] = test: Preservation of strawberries against fungal contamination, single topical application; details: 100 μM peptide in water
Description: (§5) The peptide of SEQ ID NO: 3, which comprises pep5 (SEQ ID NO: 1) and the cell-penetrating peptide (SEQ ID NO: 2), was prepared in a 100 μM solution in water, for direct topical use on the food to be preserved.
The peptide of SEQ ID NO: 15, which comprises the peptide of SEQ ID NO: 9 and the cell penetrating peptide of SEQ ID NO: 2, was prepared in a 100 μM solution in water, for use in the food or plant to be preserved.
The additive prepared according to example 1 was used in experiments for food preservation by single topical application.
The results of groups of 10 strawberries in each condition (test and control) at 0, 12, 24, 36, 48 and 60 h, respectively in A, B, C, D, E and F are shown.

fresh strawberries [2] = test: Preservation of strawberries against rot at 4° C.; details: 100 μM peptide in water, kept at 4° C., 5 days; intense rot visible in untreated group; FIG. 3 D
Description: as §5
A new experiment with strawberries, now with the test and control groups being kept at a temperature of 4° C.
Representative results of strawberries in each condition (test and control) at 0 h, 24 h, 48 h and 5 days, respectively in A, B, C and D are shown.

bean seeds = test: Modulation of the germination rate of bean seeds; parameters: species or system black bean; details: single dose 100 μM in water, moist cotton, vs water
Description: To evaluate the effects of the additive of the invention in the modulation of cell division or multiplication in plants, particularly in the modulation of seed germination and/or plant development, an experiment aimed at observing the germination of bean seeds and the subsequent development of seedlings was conducted. Groups of groups of 14 black bean seeds were placed in moist cotton, each group in one condition: control, with application of water; and test, with application of the additive of the invention as described below. The state of the seeds was observed and documented at times 0, 3 and 4, and the pattern and profile of germination of the beans were analyzed.
The results of germination of groups of 14 seeds in moist cotton in each condition (control and test) in 0, 3 and 4 days, respectively in A, B and C are shown.

Substance	preservation of flowers (roses), visual (roses)	preservation of flowers (Gerberas), visual (Gerberas)	fruit preservation (visual results, percentage of spoiled fruits) (fresh strawberries [1]; single application, 0-60 h, vs water control, FIGS. 1 and 2)	presence of a fungus with white hyphae on strawberries (fresh strawberries [1]; single topical application, FIG. 1 D and E (36 and 48 h), visible in water control)	presence of intense rot in strawberries (fresh strawberries [2])	seed germination process (number of bean seeds germinated) (bean seeds; room temperature (28° C.), 0, 3 and 4 days, FIGS. 4 and 5)	metabolic state of the shoots or seedlings (bean seeds; room temperature (28° C.))
SEQ ID NO: 15: peptide containing the peptide of SEQ ID NO: 9 and the cell-penetrating peptide of SEQ ID NO: 2 (WELVVLYGRKKRRQRRR)	effective preservation	effective preservation	–	–	–	–	–
SEQ ID NO: 3: peptide containing the peptide of SEQ ID NO: 1 (WELVVLGKL) and the cell-penetrating peptide of SEQ ID NO: 2 (YGRKKRRQRRR) in the C-terminal region (WELVVLGKLYGRKKRRQRRR)	–	–	great potential for fruit preservation	not detectable	not detectable	delay in the seed germination process	substantial modulation
